According to patent US20250351832A1, “PHYTOCHEMICALS AS BIOPESTICIDES AND BIOSTIMULANTS” (KAY BEE BIO ORGANICS PVT. LTD., priority 2024, published 2025):
Where two headings read alike, the source gives them in different places.

What was measured:
Mealy Bug [1] = details: in vivo
Spodoptera litura [2] = assay: whole plant or invertebrate; details: 72 h
Thrips [3] = assay: whole plant or invertebrate; details: in Gossypium hirsutum, 48 h
[4] = cited from earlier work; for Phytotonic Effect: Table 13, effect on plants, descriptive
Thrips [5] = details: in vivo
chili seedlings = assay: Response of chili plants, greenhouse growth (Ex. 31); format: in vivo
Alternaria alternata [6] = assay: Alternaria leaf spot/blight on inoculated tomato plants (Ex. 28); format: in vivo
Helicoverpa armigera = details: in vivo
Spodoptera litura [7] = details: in vivo
Aphid [8] = details: in vivo
Mealy Bug [9] = details: in vivo; remark: listed apart in the source
tomato seedlings = assay: Response of tomato plants, greenhouse growth (Ex. 30); format: in vivo; details: tomato seedlings, dose 1 ml/gm/lit; for Plant Height 5th Day / Stem Girth 5th Day / CCI 5th Day: 5th day after application; for Plant Height 10th Day / Stem Girth 10th Day / CCI 10th Day: 10th day after application; for Plant Height % Increase over pre on 10th Day / Stem Girth % Increase over pre on 10th Day / CCI % Increase over pre on 10th Day / Root Length (cm) 10th Day / Root Length % Increase over control: 10th day; for Root Length % Increase over control: vs water control
Alternaria alternata [10] = assay: In vitro poisoned food technique against fungus (Ex. 20); format: cell-based
Spodoptera litura [11] = details: in vivo; remark: listed apart in the source
Aphid [12] = assay: whole plant or invertebrate; details: 48 h
[13] = read-out: % Corrected Mortality at 72 Hrs.
[14] = read-out: % Mortality at 72 Hrs.
[15] = read-out: % Corrected Mortality at 48 Hrs.
[16] = read-out: % Mortality at 48 Hrs.
[17] = Table 13, descriptive, no test described
[18] = chili seedlings, dose 1 ml/gm/lit, 10th day
[19] = poisoned food technique, PDA medium, dose 1 ml/gm/lit., after seven days
[20] = chili seedlings, dose 1 ml/gm/lit, 5th day after application
[21] = chili seedlings, dose 1 ml/gm/lit, 10th day after application

For CC(C)c1ccc(C=O)cc1 [Cuminaldehyde], which “% Corrected Mortality at 48 Hrs.” value (Mealy Bug [1]) is on record?
The value was 50.00%.

And the mortality at 1 mL or g/L (Spodoptera litura [2]; [13])?
Its mortality at 1 mL or g/L is 50%.

And the mortality at 1 mL or g/L (Spodoptera litura [2]; [14])?
The mortality at 1 mL or g/L was 52.5%.

What about the mortality at 1 mL or g/L (Thrips [3]; [15]) of the same compound?
Its mortality at 1 mL or g/L is 34.3%.

What about the mortality at 1 mL or g/L (Thrips [3]; [16]) of the same compound?
The mortality at 1 mL or g/L was 42.5%.

And the “Antifungal Activity - Mode of action” value [4, 17]?
Its value is “Mycelial growth inhibition”.

And the “Antioxidant Activity - Mode of action” value [4, 17]?
Its value is “Increase in reactive oxygen”.

What about the “Bactericidal Activity - Mode of action” value [4, 17] of the same compound?
The value was “Great antimicrobial effects”.

And the “Insecticidal Activities - Mode of action” value [4, 17]?
Its value is “Acute Toxicity Effects”.

And the “Nematicidal Activity - Mode of action” value [4, 17]?
Its value is “Efficient hatching inhibitor”.

And the “Phytotonic Effect” value [4]?
The value was “Boost plant”.

What about the “% Corrected Mortality at 48 Hrs.” value (Thrips [5]) of the same compound?
The value was 33.33%.

And the “% Mortality at 48 Hrs.” value (Thrips [5])?
The value was 40.00%.

And the “CCI Pre” value (chili seedlings)?
Its value is 10.29.

What about the “Plant Height (cm) Pre” value (chili seedlings) of the same compound?
The value was 4.27 cm.

What about the “CCI 5th Day” value (chili seedlings; 120 h) of the same compound?
Its value is 12.10.

What about the “Plant Height (cm) 5th Day” value (chili seedlings; 120 h) of the same compound?
The value was 5.77 cm.

What about the “CCI 10th Day” value (chili seedlings; 240 h) of the same compound?
The value was 13.9.

And the “Plant Height (cm) 10th Day” value (chili seedlings; 240 h)?
The value was 6.40 cm.

What about the “Root Lenght % Increase over control” value (chili seedlings; 240 h) of the same compound?
Its value is 13.94%.

And the “CCI % Increase over pre on 10th Day” value (chili seedlings; [18])?
The value was 35.08%.

And the “Plant Height % Increase over pre on 10th Day” value (shortened to “Plant Height % Increase”) (chili seedlings; [18])?
The value was 50.00%.

What about the “Root Lenght (cm) 10th Day” value (chili seedlings; [18]) of the same compound?
The value was 3.12 cm.

And the “Stem Girth % Increase over pre on 10th Day” value (“Stem Girth % Increase” for short) (chili seedlings; [18])?
Its value is 40.41%.

What about the “% Disease reduction over Control” value (Alternaria alternata [6]; tomato plants, Alternaria alternata, after 7 days, dose 1 ml/gm/lit) of the same compound?
The value was 52.89%.

And the “Total No. of dead insect at 72 Hrs.” value (Helicoverpa armigera)?
Its value is 3.75.

And the “Total No. of dead insect at 72 Hrs.” value (Spodoptera litura [7])?
Its value is 5.25.

And the “% Corrected Mortality at 48 Hrs.” value (Aphid [8])?
Its value is 45.71%.

And the “% Mortality at 48 Hrs.” value (Aphid [8])?
The value was 52.50%.

And the “% Corrected Mortality at 48 Hrs.” value (Mealy Bug [9])?
The value was 50.00%.

What about the “Plant Height 5th Day” value (tomato seedlings) of the same compound?
Its value is 6.62 cm.

What about the “Stem Girth 5th Day” value (tomato seedlings) of the same compound?
Its value is 1.77 mm.

And the “Plant Height 10th Day” value (tomato seedlings)?
The value was 7.33 cm.

And the “Stem Girth 10th Day” value (tomato seedlings)?
The value was 2.08 mm.

What about the “Plant Height % Increase” value (tomato seedlings) of the same compound?
Its value is 31.36%.

And the “Stem Girth % Increase” value (tomato seedlings)?
The value was 64.12%.

And the “CCI 5th Day” value (tomato seedlings)?
Its value is 13.64.

And the “CCI % Increase over pre on 10th Day” value (tomato seedlings)?
Its value is 16.83%.

What about the “Root Length (cm) 10th Day” value (tomato seedlings) of the same compound?
The value was 3.81 cm.

What about the “CCI 10th Day” value (tomato seedlings) of the same compound?
The value was 14.65.

And the “Root Length % Increase over control” value (tomato seedlings)?
The value was 14.59%.

And the “Mean colony Diameter (mm)” value (Alternaria alternata [10]; [19])?
Its value is 51.50 mm.

And the inhibition of growth at 1 mL or g/L (Alternaria alternata [10]; poisoned food technique, PDA medium, dose 1 ml/gm/lit., after seven days, vs untreated control, read-out: % Inhibition of growth)?
The inhibition of growth at 1 mL or g/L was 41.5%.

And the “% Corrected Mortality at 72 Hrs.” value (Spodoptera litura [11])?
Its value is 52.63%.

What about the “% Mortality at 72 Hrs.” value (Spodoptera litura [11]) of the same compound?
The value was 55.00%.

And the mortality at 1 mL or g/L (Aphid [12]; [15])?
Its mortality at 1 mL or g/L is 47.1%.

And the mortality at 1 mL or g/L (Aphid [12]; [16])?
The mortality at 1 mL or g/L was 55%.

Which mortality at 1 mL or g/L (Spodoptera litura [2]; [13]) does the source give for COc1cc(CNC(=O)CCCC/C=C/C(C)C)ccc1O [Capsaicin] here?
The mortality at 1 mL or g/L was 39.5%.

And the mortality at 1 mL or g/L (Spodoptera litura [2]; [14])?
Its mortality at 1 mL or g/L is 42.5%.

And the mortality at 1 mL or g/L (Thrips [3]; [15])?
The mortality at 1 mL or g/L was 57.1%.

What about the mortality at 1 mL or g/L (Thrips [3]; [16]) of the same compound?
Its mortality at 1 mL or g/L is 62.5%.

What about the “Acaricidal Activity - Mode of action” value [4, 17] of the same compound?
The value was “Acts as a mite feeding”.

And the “Antifungal Activity - Mode of action” value [4, 17]?
Its value is “Inhibits the hyphae”.

What about the “Antioxidant Activity - Mode of action” value [4, 17] of the same compound?
The value was “Showed antioxidant”.

And the “Bactericidal Activity - Mode of action” value [4, 17]?
Its value is “Inhibition of bacterial”.

And the “Insecticidal Activities - Mode of action” value [4, 17]?
Its value is “Fumigant and larvicidal”.

What about the “Virucidal Activity - Mode of action” value [4, 17] of the same compound?
The value was “Inhibited viral replication”.

And the “Phytotonic Effect” value [4]?
The value was “Increase”.

And the “% Corrected Mortality at 48 Hrs.” value (Thrips [5])?
Its value is 55.56%.

And the “% Mortality at 48 Hrs.” value (Thrips [5])?
Its value is 60.00%.

What about the “CCI 5th Day” value (chili seedlings; [20]) of the same compound?
Its value is 12.21.

What about the “Plant Height (cm) 5th Day” value (chili seedlings; [20]) of the same compound?
Its value is 6.30 cm.

And the “CCI % Increase over pre on 10th Day” value (chili seedlings; [18])?
Its value is 46.96%.

What about the “Plant Height % Increase” value (chili seedlings; [18]) of the same compound?
The value was 43.26%.

What about the “Root Lenght (cm) 10th Day” value (chili seedlings; [18]) of the same compound?
The value was 2.99 cm.

And the “Stem Girth % Increase” value (chili seedlings; [18])?
The value was 43.31%.

What about the “CCI 10th Day” value (chili seedlings; [21]) of the same compound?
Its value is 13.52.

What about the “Plant Height (cm) 10th Day” value (chili seedlings; [21]) of the same compound?
Its value is 6.59 cm.

And the “Root Lenght % Increase over control” value (chili seedlings; chili seedlings, dose 1 ml/gm/lit, 10th day, vs water control)?
The value was 9.09%.

And the “% Disease reduction over Control” value (Alternaria alternata [6]; in vivo)?
The value was 51.24%.

What about the “Total No. of dead insect at 72 Hrs.” value (Helicoverpa armigera) of the same compound?
The value was 4.50.

And the “Total No. of dead insect at 72 Hrs.” value (Spodoptera litura [7])?
Its value is 4.25.

And the “% Corrected Mortality at 48 Hrs.” value (Aphid [8])?
The value was 57.14%.

And the “Plant Height 5th Day” value (tomato seedlings)?
The value was 7.11 cm.

And the “Stem Girth 5th Day” value (tomato seedlings)?
The value was 1.92 mm.

And the “Plant Height 10th Day” value (tomato seedlings)?
The value was 7.86 cm.

And the “Stem Girth 10th Day” value (tomato seedlings)?
Its value is 2.01 mm.

What about the “Plant Height % Increase” value (tomato seedlings) of the same compound?
The value was 29.28%.

And the “Stem Girth % Increase” value (tomato seedlings)?
The value was 58.60%.

And the “CCI 5th Day” value (tomato seedlings)?
Its value is 14.66.

And the “CCI % Increase over pre on 10th Day” value (tomato seedlings)?
The value was 21.99%.

And the “Root Length (cm) 10th Day” value (tomato seedlings)?
Its value is 3.95 cm.

And the “CCI 10th Day” value (tomato seedlings)?
The value was 15.42.

And the “Root Length % Increase over control” value (tomato seedlings)?
Its value is 18.74%.

And the inhibition of growth at 1 mL or g/L (Alternaria alternata [10]; […])?
The inhibition of growth at 1 mL or g/L was 42.6%.

What about the “Mean colony Diameter (mm)” value (Alternaria alternata [10]; [19]) of the same compound?
Its value is 50.50 mm.

What about the “% Corrected Mortality at 72 Hrs.” value (Spodoptera litura [11]) of the same compound?
The value was 44.74%.

And the “% Mortality at 72 Hrs.” value (Spodoptera litura [11])?
The value was 47.50%.

What about the mortality at 1 mL or g/L (Aphid [12]; [15]) of the same compound?
Its mortality at 1 mL or g/L is 55.9%.

What about the mortality at 1 mL or g/L (Aphid [12]; [16]) of the same compound?
Its mortality at 1 mL or g/L is 62.5%.
